How the values were obtained:
[1] = tested on: A II-induced pressory response; test: inhibition of the A II-induced pressory response in the ganglio-blocked normotensive rat (in vivo); conditions: iv
Excerpt: (§1) For the characterization and the evaluation of the effectiveness of the compounds of the invention, in vitro tests (such as the inhibition of the A II-induced contraction in the rabbit aorta and the displacement of ^125 I-Sar^1 -Ile^8 -AT II or [H^3 ] AT II in the rat adrenal cortex) and an in vivo test (the inhibition of the A II-induced pressory response in the ganglio-blocked normotensive rat) were selected.

A II receptor = test: receptor binding test: displacement of 125I-Sar1-Ile8-AT II or [H3] AT II in the rat adrenal cortex
Excerpt: The compounds described in the present invention act as antagonists at the A II receptor level.
as §1

[2] = molecular target: T1, A II-induced contraction in the rabbit aorta (Oryctolagus cuniculus, UniProt P34976); test: inhibition of the A II-induced contraction in the rabbit aorta (in vitro); type: cell-based; conditions: read-out: pA2 (converted)
T1 construct: A II-induced contraction in the rabbit aorta; from tissue; host or cells: rabbit aorta
T1 sequence (P34976 1-359): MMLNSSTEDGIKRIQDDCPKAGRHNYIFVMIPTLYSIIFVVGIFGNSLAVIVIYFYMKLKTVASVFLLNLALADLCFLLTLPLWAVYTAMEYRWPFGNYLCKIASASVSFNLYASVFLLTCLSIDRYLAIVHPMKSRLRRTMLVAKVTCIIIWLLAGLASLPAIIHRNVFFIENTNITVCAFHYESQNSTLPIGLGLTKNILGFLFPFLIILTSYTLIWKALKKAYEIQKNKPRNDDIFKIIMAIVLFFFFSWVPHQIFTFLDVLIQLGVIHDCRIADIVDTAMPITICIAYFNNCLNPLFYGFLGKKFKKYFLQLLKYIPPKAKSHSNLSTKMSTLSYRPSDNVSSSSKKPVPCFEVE
Excerpt: as §1

| Ki (A II receptor) [nM] | Kb [2] [nM] | Compound | ED50 [1] [mg/kg] |
| --- | --- | --- | --- |
| 6.5 |  | CCCCc1nc(-c2cccc[n+]2[O-])cn1Cc1ccc(-c2ccccc2-c2nn[nH]n2)cc1 [Example 10e, 2-butyl-4-(pyridin-2-yl-N-oxide)-1-[[2'-(tetrazol-5-yl)biphenyl-4-yl]methyl]-1H-imidazole] | 0.54 |
|  | 10 | CCCCc1nc(-c2ccccc2C(=O)O)cn1Cc1ccc(-c2ccccc2-c2nnn[nH]2)cc1 [Example 10, 2-Butyl-4-(2-carboxyphenyl)-1-[[2'-(tetrazol-5-yl) -biphenyl-4-yl]methyl]-1H-imidazole] | 0.52 |
